Each compound was assayed against HIF PHD2 (Homo sapiens, UniProt Q9GZT9) (assay: PHD2 inhibition assay (TR-FRET, VCB-Eu detection of hydroxylated P564-HIF1α peptide)). Conditions: 2 nM PHD2, 100 nM P564-HIF1α peptide, 0.25 μM 2-oxoglutarate, 100 μM FeCl2, 2 mM ascorbic acid.
Assay type: biochemical
Procedure: Inhibition of HIF PHD2 activity was quantified utilizing the TR-FRET technology. HIF PHD2 catalyzes a hydroxyl modification on the proline residue of the P564-HIF1α peptide substrate (Biotin-DLEMLAPYIPMDDDFQL (SEQ ID NO: 7)) resulting in recognition and binding of the europylated Von Hippel-Lindau protein (pVHL), elongin B and elongin C heterotrimeric (VCB-Eu) complex.
The PHD2 inhibition assay was executed by addition of freshly dissolved FeCl2 to 178.57 μM (100 μM final concentration) in PHD2 Reaction Buffer containing 30 mM MES, pH 6, 10 mM NaCl, 0.25% Brij-35, 0.01% BSA, and 1% DMSO. 28 μL of the iron solution and 2 μL of inhibitor compounds serially diluted in 100% DMSO (5% DMSO final) were added to black polypropylene 96-well microtiter plates. To that, 10 μL of 10 nM PHD2 (2 nM final) was added to all wells of the plate except for the 8 wells of column 12 (LO control), and allowed to incubate at room temperature on the shaker for one hour. Column 6 was the HI control containing PHD2 enzyme and 5% DMSO vehicle, but no inhibitor compound. To initiate the PHD2 enzymatic reaction, 10 μL of a solution containing 500 nM P564-HIF1α peptide (100 nM final), 10 mM ascorbic acid (2 mM final), and 1.25 μM 2-oxoglutarate (α-ketoglutarate; 0.25 μM final) in PHD2 Reaction Buffer was added to all wells of the plate and allowed to incubate on the shaker at room temperature for one hour.
The reaction was terminated by addition of 25 μL TR-FRET Buffer (50 mM TRIS-HCl, pH 9, 100 mM NaCl, 0.05% BSA, and 0.5% Tween-20) containing 150 mM succinate (product inhibitor; 50 mM final), 75 nM streptavidin-APC (25 nM final), and 7.5 nM VCB-Eu (2.5 nM final). The TR-FRET detection reagents were placed on a shaker for 1 hour to reach binding equilibrium before reading on the Discovery platform (PerkinElmer). Europium is excited at 315 nm and phosphoresces at 615 nm with a large Stoke's shift. APC, in turn, emits at 655 nm upon excitation at 615 nm. The TR-FRET signal is measured as the ratio of the APC 655 nm signal divided by the internal europium reference 615 nm emission signal.
The POC (percentage of control) was determined by comparing the signal from hydroxylated peptide substrate in the enzyme reaction containing inhibitor compound with that from PHD2 enzyme with DMSO vehicle alone (HI control), and no enzyme (LO control). POC was calculated using the formula: % control (POC)=(cpd−average LO)/(average HI−average LO)*100. Data (consisting of POC and inhibitor concentration in μM) was fitted to a 4-parameter equation (y=A+((B−A)/(1+((x/C)^D))), where A is the minimum y (POC) value, B is the maximum y (POC), C is the x (cpd concentration) at the point of inflection and D is the slope factor) using a Levenburg-Marquardt non-linear regression algorithm.

Sequence of HIF PHD2 (Q9GZT9 whole entry): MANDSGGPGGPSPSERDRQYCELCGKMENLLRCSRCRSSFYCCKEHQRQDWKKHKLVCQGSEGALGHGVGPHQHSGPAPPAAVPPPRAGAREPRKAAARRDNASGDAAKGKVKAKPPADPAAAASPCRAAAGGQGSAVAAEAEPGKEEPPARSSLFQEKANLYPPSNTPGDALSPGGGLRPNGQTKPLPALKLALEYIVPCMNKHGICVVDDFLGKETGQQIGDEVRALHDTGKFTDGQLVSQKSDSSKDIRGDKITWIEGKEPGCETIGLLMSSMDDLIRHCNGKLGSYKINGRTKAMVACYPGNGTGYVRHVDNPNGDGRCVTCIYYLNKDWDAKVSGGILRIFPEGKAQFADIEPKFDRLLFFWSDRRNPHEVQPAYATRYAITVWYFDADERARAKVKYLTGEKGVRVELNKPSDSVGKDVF

| IC50 [nM] | SMILES |
| --- | --- |
| 100 to 500 | C[C@@]1(c2ccc(Cl)cc2)C(=O)C(C(=O)NCC(=O)O)=C(O)c2cc(Cl)ccc21 (single isomer, unassigned) [Example 29] |
| 500 to 1000 | C[C@]1(c2ccc(Cl)cc2)C(=O)C(C(=O)NCC(=O)O)=C(O)c2cc(Cl)ccc21 (single isomer, unassigned) [Example 30] |
| 100 to 500 | CCC1(C)C(=O)C(C(=O)NCC(=O)O)=C(O)c2cc(Cl)ccc21 (single isomer, unassigned) [Example 78] |
| 100 to 500 | C[C@@]1(c2ccccc2)C(O)=C(C(=O)NCC(=O)O)C(=O)c2ccccc21 (single isomer, unassigned) [Example 114, N-(((4S)-3-Hydroxy-4-methyl-1-oxo-4-phenyl-1,4-dihydro-2-naphthalenyl)carbonyl)glycine or N-(((4R)-3-Hydroxy-4-methyl-1-oxo-4-phenyl-1,4-dihydro-2-naphthalenyl)carbonyl)glycine] |
| 1000 to 10000 | C[C@@]1(C#N)C(=O)C(C(=O)CCC(=O)O)=C(O)c2cc(Cl)ccc21 (single isomer, unassigned) [Example 120, 4-(7-chloro-4-cyano-1-hydroxy-4-methyl-3-oxo-3,4-dihydronaphthalen-2-yl)-4-oxobutanoic acid] |
| 1000 to 10000 | C[C@@]1(C#N)C(=O)C(C(=O)CCC(=O)O)=C(O)c2cc(Cl)ccc21 (single isomer, unassigned) [Example 124, (R)-4-(7-chloro-4-cyano-1-hydroxy-4-methyl-3-oxo-3,4-dihydronaphthalen-2-yl)-4-oxobutanoic acid or (S)-4-(7-chloro-4-cyano-1-hydroxy-4-methyl-3-oxo-3,4-dihydronaphthalen-2-yl)-4-oxobutanoic acid] |
| < 100 | C[C@@]1(C#N)C(=O)C(C(=O)NCC(=O)O)=C(O)c2cc(F)ccc21 (single isomer, unassigned) [Example 135, (R)-2-(1-cyano-6-fluoro-4-hydroxy-1-methyl-2-oxo-1,2-dihydronaphthalene-3-carboxamido) acetic acid or (S)-2-(1-cyano-6-fluoro-4-hydroxy-1-methyl-2-oxo-1,2-dihydronaphthalene-3-carboxamido) acetic acid] |
| < 100 | C[C@@]1(C#N)C(=O)C(C(=O)NCC(=O)O)=C(O)c2ccc(F)cc21 (single isomer, unassigned) [Example 137, (R)-2-(1-cyano-7-fluoro-4-hydroxy-1-methyl-2-oxo-1,2-dihydronaphthalene-3-carboxamido) acetic acid or (S)-2-(1-cyano-7-fluoro-4-hydroxy-1-methyl-2-oxo-1,2-dihydronaphthalene-3-carboxamido) acetic acid] |
| < 100 | CC1(C#N)C(=O)C(C(=O)NCC(=O)O)=C(O)c2ccc(Br)cc21 (single isomer, unassigned) [Example 139] |
| < 100 | CC1(C#N)C(=O)C(C(=O)NCC(=O)O)=C(O)c2ccc(Cl)cc21 (single isomer, unassigned) [Example 141] |
| < 100 | C[C@@]1(C#N)C(=O)C(C(=O)NCC(=O)O)=C(O)c2cc(F)c(F)cc21 (single isomer, unassigned) [Example 142, (R)-2-(1-cyano-6,7-difluoro-4-hydroxy-1-methyl-2-oxo-1,2-dihydronaphthalene-3-carboxamido) acetic acid or (S)-2-(1-cyano-6,7-difluoro-4-hydroxy-1-methyl-2-oxo-1,2-dihydronaphthalene-3-carboxamido) acetic acid] |
| < 100 | O=C(O)CNC(=O)C1=C(O)c2cc(Cl)ccc2C2(CCOCC2)C1=O [Example 1, N-((6-Chloro-4-hydroxy-2-oxo-2′,3′,5′,6′-tetrahydro-2H-spiro[naphthalene-1,4′-pyran]-3-yl)carbonyl)glycine] |
| < 100 | CC1(C)C(=O)C(C(=O)NCC(=O)O)=C(O)c2cc(Cl)ccc21 [Example 2, N-((6-Chloro-4-hydroxy-1,1-dimethyl-2-oxo-naphthalen-3-yl)carbonyl)glycine] |
| < 100 | O=C(O)CNC(=O)C1=C(O)c2cc(C(F)(F)F)ccc2C2(CCOCC2)C1=O [Example 3, N-((4-Hydroxy-2-oxo-6-(trifluoromethyl)-2′,3′,5′,6′-tetrahydro-2H-spiro[naphthalene-1,4′-pyran]-3-yl)carbonyl)glycine] |
| < 100 | CC1(C)C(=O)C(C(=O)NCC(=O)O)=C(O)c2cc(C(F)(F)F)ccc21 [Example 4, N-((4-Hydroxy-1,1-dimethyl-2-oxo-6-(trifluoromethyl)-naphthalen-3-yl)carbonyl)glycine] |
| < 100 | CC1(C)C(=O)C(C(=O)NCC(=O)O)=C(O)c2cc(-c3cccnc3)ccc21 [Example 5, N-((4-Hydroxy-1,1-dimethyl-2-oxo-6-(3-pyridinyl)-naphthalen-3-yl)carbonyl)glycine] |
| 100 to 500 | Cc1ccc(-c2ccc3c(c2)C(O)=C(C(=O)NCC(=O)O)C(=O)C3(C)C)c(F)n1 [Example 6, N-((6-(2-Fluoro-6-methyl-3-pyridinyl)-4-hydroxy-1,1-dimethyl-2-oxo-naphthalen-3-yl)carbonyl)glycine] |
| 100 to 500 | Cc1cc(-c2ccc3c(c2)C(O)=C(C(=O)NCC(=O)O)C(=O)C3(C)C)ccn1 [Example 7, N-((4-Hydroxy-1,1-dimethyl-6-(2-methyl-4-pyridinyl)-2-oxo-naphthalen-3-yl)carbonyl)glycine] |
| 100 to 500 | Cc1ncccc1-c1ccc2c(c1)C(O)=C(C(=O)NCC(=O)O)C(=O)C2(C)C [Example 8, N-((4-Hydroxy-1,1-dimethyl-6-(2-methyl-3-pyridinyl)-2-oxo-naphthalen-3-yl)carbonyl)glycine] |
| 1000 to 10000 | CC1(C)C(=O)C(C(=O)NCC(=O)O)=C(O)c2cc(-c3cncc(F)c3)ccc21 [Example 9, N-((6-(5-Fluoro-3-pyridinyl)-4-hydroxy-1,1-dimethyl-2-oxo-naphthalen-3-yl)carbonyl)glycine] |
| < 100 | O=C(O)CNC(=O)C1=C(O)c2cc(Cl)ccc2[C@@]2(CCOC2)C1=O [Example 10, N-(((3R)-6′-Chloro-4′-hydroxy-2′-oxo-4,5-dihydro-spiro[furan-3,1′-naphthalen]-3′-yl)carbonyl)glycine] |
| < 100 | O=C(O)CNC(=O)C1=C(O)c2cc(Cl)ccc2[C@]2(CCOC2)C1=O [Example 11, N-(((3S)-6′-Chloro-4′-hydroxy-2′-oxo-4,5-dihydro-spiro[furan-3,1′-naphthalen]-3′-yl)carbonyl)glycine] |
| < 100 | O=C(O)CNC(=O)C1=C(O)c2cc(Cl)ccc2C2(CCOC2)C1=O (stereo not shown) [Example 12, N-((6′-Chloro-4′-hydroxy-2′-oxo-4,5-dihydro-2′H-spiro[furan-3,1′-naphthalen]-3′-yl)carbonyl)glycine] |
| < 100 | CC1(C)C(=O)C(C(=O)NCC(=O)O)=C(O)c2cc(F)ccc21 [Example 13, N-((6-Fluoro-4-hydroxy-1,1-dimethyl-2-oxo-naphthalene-3-yl)carbonyl)glycine] |
| < 100 | COc1cc2c(cc1Br)C1(CCOCC1)C(=O)C(C(=O)NCC(=O)O)=C2O [Example 14, N-((7-Bromo-4-hydroxy-6-(methyloxy)-2-oxo-2′,3′,5′,6′-tetrahydro-spiro[naphthalene-1,4′-pyran]-3-yl)carbonyl)glycine] |
| 100 to 500 | CCC1(C)C(=O)C(C(=O)NCC(=O)O)=C(O)c2cc(Cl)ccc21 (stereo not shown) [Example 15, N-((6-Chloro-1-ethyl-4-hydroxy-1-methyl-2-oxo-naphthalen-3-yl)carbonyl)glycine] |
| < 100 | COc1ccc2c(c1)C(O)=C(C(=O)NCC(=O)O)C(=O)C21CCOCC1 [Example 16, N-((4-Hydroxy-6-(methyloxy)-2-oxo-2′,3′,5′,6′-tetrahydro-spiro[naphthalene-1,4′-pyran]-3-yl)carbonyl)glycine] |
| < 100 | O=C(O)CNC(=O)C1=C(O)c2cc(F)ccc2C2(CCOCC2)C1=O [Example 17, N-((6-Fluoro-4-hydroxy-2-oxo-2′,3′,5′,6′-tetrahydro-spiro[naphthalene-1,4′-pyran]-3-yl)carbonyl)glycine] |

From patent publication US7928139B2 (Amgen Inc., priority 2006, dated 2011)
